According to US20240025908A1, “COMPOUND USED AS KINASE INHIBITOR AND USE THEREOF” (TYK MEDICINES, INC., priority 2020, published 2024):

Legend:
[1] = target: ROS1 (Homo sapiens (Human), UniProt P08922); experiment: Radio-tagged HotSpot kinase assay, ROS1; format: biochemical
Procedure: (§1) Inhibition of protein kinase activity by compounds was carried out on the Radio-tagged HotSpot kinase experimental platform of Reaction Biology Corporation. Fresh reaction solution (20 mM TIEPESpH 7.5, 10 mM MgCl2, 1 mM EGTA, 0.02% Brij35, 0.02 mg/ml BSA, 0.1 mM Na3VO4, 2 mM DTT, […]) containing corresponding substrates was prepared, cofactor and kinase to be tested were added into the above solution and mixed gently. Echo550 pipetting system was used to add the test compound DMSO solution to each well (the blank control group was added with the corresponding volume of DMSO), then 33P-ATP (with a final specific activity of 0.01 μCi/μL) was added to start the reaction. The reaction solution was incubated at room temperature for 120 minutes. Transferred the incubated reaction solution to P81 ion exchange chromatographic paper (Whatman #3698-915), eluted with […] phosphoric acid solution, and the amount of radioactive phosphorylated substrate remaining on the chromatographic paper was detected.

[2] = target: ROS1 (G2032R) (Homo sapiens (Human), UniProt P08922, G2032R); experiment: Radio-tagged HotSpot kinase assay, ROS1 (G2032R); format: biochemical
Procedure: as §1

[3] = target: TRKA (Homo sapiens (Human), UniProt P04629); experiment: Radio-tagged HotSpot kinase assay, TRKA; format: biochemical
Procedure: as §1

[4] = target: TRKA (G677C) (Homo sapiens, UniProt P04629, G667C); experiment: Radio-tagged HotSpot kinase assay, TRKA (G677C); format: biochemical; conditions: read-out: TRKA (G677C) (IC50/nM)
Procedure: as §1

[5] = target: ALK (Homo sapiens (Human), UniProt Q9UM73); experiment: Radio-tagged HotSpot kinase assay, ALK; format: biochemical
Procedure: as §1

[6] = target: ALK (G1202R) (Homo sapiens (Human), UniProt Q9UM73, G1202R); experiment: Radio-tagged HotSpot kinase assay, ALK (G1202R); format: biochemical
Procedure: as §1

[7] = tested on: Ba/F3-CD74-ROS1-G2032R; experiment: Inhibition of cell proliferation (CellTiter-Glo), Ba/F3-CD74-ROS1-G2032R; format: cell-based; conditions: 72 hours
Procedure: (§2) The experiment of inhibiting cell proliferation by compounds was carried out in Hefei Zhongkeprecedo Biomedical Technology Co., Ltd. The Ba/F3 engineered cell line stably transfected with different kinase genes was recovered with RPMI 1640 medium (Biological Industries, Israel)+10% fetal bovine serum (Biological Industries, Israel)+1% double antibody (Penicillin Streptomycin solution, Coring, USA) and cultivated two generations. The logarithmic growth phase cell suspension was taken, and 2000 cells/well were inoculated on 96-well white cell culture plate (Corning 3917, NY, USA) with a volume of 95 μL per well. 5 μL of 20×DMSO solution of the compound to be tested was added into the culture plate containing 95 μL of cell suspension. The blank control group was added with corresponding volume of DMSO, mixed well, and incubated in a 5% CO2 incubator at 37° C. for 72 hours. CellTiter-Glo was used to detect cell viability.

[8] = tested on: Ba/F3-LMNA-NTRK1-G595R; experiment: Inhibition of cell proliferation (CellTiter-Glo), Ba/F3-LMNA-NTRK1-G595R; format: cell-based; conditions: 72 hours
Procedure: as §2

[9] = tested on: Ba/F3-TEL-ALK-G1202R; experiment: Inhibition of cell proliferation (CellTiter-Glo), Ba/F3-TEL-ALK-G1202R; format: cell-based; conditions: 72 hours
Procedure: as §2

Sequence of TRKA (G677C) (P04629 33-796 G667C limits assumed): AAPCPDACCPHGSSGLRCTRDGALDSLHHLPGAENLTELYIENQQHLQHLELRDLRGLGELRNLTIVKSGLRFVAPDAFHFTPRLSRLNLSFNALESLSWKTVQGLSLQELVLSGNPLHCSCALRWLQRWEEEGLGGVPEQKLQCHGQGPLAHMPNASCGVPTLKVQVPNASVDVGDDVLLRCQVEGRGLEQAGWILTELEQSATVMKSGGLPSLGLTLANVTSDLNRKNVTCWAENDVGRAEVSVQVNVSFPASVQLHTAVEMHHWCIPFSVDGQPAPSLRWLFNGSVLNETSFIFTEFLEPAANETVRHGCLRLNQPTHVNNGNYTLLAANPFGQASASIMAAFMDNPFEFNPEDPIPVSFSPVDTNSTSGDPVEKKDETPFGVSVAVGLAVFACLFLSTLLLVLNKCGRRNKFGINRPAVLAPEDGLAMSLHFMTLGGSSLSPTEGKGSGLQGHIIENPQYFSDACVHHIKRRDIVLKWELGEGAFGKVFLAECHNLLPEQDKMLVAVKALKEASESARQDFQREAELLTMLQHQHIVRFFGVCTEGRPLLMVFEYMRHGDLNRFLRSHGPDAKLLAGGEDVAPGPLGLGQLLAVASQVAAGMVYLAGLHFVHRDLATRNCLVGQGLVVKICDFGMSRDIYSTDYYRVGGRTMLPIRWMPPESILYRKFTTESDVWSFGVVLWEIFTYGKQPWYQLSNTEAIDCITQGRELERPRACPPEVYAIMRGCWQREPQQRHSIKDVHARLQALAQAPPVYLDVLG
Sequence of ROS1 (P08922 28-2347): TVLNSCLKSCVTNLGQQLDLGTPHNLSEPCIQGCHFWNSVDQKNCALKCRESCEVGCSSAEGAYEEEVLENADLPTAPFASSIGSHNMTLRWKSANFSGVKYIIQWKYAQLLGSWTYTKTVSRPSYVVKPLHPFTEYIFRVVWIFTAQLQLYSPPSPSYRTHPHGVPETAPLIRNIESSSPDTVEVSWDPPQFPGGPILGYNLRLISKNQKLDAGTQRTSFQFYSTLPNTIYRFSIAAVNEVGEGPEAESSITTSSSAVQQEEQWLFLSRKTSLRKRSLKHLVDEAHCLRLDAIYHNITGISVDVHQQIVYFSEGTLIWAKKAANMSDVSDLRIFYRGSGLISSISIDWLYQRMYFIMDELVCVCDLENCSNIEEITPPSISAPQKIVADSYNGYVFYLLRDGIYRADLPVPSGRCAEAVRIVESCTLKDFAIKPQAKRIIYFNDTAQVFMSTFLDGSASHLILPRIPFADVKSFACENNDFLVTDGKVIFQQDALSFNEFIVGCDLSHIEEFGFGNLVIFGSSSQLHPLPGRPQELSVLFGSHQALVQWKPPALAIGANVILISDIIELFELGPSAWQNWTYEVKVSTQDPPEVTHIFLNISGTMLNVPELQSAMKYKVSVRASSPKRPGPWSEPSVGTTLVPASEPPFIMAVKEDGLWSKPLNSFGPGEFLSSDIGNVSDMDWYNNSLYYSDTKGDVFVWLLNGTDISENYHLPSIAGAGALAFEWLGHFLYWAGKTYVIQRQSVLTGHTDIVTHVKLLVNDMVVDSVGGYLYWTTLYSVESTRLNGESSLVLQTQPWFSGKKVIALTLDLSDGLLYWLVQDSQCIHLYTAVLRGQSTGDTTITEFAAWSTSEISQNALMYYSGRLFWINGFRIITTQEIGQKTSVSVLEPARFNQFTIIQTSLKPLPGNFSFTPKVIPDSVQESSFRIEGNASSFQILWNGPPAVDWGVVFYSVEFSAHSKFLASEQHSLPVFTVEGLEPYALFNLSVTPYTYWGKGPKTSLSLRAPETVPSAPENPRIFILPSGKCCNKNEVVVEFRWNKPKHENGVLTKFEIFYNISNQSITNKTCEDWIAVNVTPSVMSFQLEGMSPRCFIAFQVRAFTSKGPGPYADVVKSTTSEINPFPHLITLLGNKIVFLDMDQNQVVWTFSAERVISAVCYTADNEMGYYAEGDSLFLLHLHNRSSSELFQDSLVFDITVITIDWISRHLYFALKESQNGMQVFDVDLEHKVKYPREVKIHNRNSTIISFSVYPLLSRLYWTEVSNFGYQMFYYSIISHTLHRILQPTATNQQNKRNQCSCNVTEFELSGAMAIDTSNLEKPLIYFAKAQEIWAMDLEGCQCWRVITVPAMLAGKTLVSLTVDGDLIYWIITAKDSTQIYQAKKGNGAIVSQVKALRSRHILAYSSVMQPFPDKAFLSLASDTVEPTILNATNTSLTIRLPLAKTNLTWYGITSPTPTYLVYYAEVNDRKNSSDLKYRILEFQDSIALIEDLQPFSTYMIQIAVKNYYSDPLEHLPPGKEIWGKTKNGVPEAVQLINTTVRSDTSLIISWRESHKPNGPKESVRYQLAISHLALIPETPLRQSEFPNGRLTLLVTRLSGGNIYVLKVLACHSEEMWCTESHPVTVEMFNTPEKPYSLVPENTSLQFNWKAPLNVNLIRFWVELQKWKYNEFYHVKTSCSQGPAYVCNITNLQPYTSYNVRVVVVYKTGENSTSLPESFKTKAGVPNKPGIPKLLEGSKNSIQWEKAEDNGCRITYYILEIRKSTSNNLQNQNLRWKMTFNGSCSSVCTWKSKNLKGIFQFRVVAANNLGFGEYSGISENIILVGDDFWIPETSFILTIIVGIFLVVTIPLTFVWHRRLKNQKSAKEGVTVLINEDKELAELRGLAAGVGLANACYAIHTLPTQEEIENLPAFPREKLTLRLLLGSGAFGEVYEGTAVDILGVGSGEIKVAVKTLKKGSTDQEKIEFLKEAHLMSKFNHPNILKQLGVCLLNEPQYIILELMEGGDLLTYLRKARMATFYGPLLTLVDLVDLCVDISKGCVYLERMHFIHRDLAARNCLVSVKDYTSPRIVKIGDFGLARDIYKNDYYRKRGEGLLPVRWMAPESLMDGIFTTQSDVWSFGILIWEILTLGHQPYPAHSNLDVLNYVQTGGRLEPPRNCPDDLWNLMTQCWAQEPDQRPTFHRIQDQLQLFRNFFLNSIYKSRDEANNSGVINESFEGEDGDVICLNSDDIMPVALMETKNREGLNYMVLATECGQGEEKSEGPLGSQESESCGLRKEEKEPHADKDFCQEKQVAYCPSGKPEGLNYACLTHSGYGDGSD
Sequence of TRKA (P04629 33-796): as the sequence (P04629 33-796 G667C limits assumed) above, with C635G counted along it
Sequence of ALK (G1202R) (Q9UM73 19-1620 G1202R): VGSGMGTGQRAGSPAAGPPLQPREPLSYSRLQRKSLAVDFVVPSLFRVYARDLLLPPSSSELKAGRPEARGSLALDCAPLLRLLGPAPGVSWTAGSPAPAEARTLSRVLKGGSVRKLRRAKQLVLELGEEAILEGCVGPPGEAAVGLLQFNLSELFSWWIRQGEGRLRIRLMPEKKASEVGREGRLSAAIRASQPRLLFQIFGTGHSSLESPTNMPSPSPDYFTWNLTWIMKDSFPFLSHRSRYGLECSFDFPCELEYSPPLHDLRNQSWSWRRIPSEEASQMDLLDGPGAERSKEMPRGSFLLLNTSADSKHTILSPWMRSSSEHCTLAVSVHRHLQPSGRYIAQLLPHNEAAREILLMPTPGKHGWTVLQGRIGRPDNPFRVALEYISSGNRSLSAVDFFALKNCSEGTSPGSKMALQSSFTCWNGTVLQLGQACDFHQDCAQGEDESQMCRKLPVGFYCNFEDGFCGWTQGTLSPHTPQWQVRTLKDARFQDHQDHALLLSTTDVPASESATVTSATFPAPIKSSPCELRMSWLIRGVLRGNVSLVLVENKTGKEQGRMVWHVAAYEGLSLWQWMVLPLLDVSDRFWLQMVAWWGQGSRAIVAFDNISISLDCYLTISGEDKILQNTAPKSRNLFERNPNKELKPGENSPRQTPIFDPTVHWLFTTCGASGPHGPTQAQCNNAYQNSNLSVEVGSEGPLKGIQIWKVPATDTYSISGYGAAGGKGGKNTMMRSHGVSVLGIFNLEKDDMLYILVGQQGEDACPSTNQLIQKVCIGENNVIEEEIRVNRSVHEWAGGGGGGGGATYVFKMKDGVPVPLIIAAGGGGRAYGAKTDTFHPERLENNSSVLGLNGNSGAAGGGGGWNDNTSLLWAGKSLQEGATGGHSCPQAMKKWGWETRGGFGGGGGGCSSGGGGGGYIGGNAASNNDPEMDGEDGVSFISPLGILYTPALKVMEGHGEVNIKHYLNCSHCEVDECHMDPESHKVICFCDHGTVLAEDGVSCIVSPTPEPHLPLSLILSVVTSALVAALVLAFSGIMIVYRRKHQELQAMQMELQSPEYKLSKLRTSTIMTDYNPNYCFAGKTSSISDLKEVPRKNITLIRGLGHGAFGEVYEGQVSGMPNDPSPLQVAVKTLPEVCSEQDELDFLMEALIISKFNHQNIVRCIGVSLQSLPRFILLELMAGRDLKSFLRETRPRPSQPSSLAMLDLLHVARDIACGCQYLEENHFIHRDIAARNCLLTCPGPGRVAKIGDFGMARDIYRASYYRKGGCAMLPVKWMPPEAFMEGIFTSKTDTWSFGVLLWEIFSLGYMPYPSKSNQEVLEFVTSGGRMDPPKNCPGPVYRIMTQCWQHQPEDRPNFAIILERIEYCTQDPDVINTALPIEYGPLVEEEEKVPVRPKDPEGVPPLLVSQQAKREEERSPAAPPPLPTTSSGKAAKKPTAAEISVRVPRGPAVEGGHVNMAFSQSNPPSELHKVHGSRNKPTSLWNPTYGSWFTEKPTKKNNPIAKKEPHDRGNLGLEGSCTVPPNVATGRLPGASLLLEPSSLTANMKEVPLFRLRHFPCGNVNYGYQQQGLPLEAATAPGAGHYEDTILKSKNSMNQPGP
Sequence of ALK (Q9UM73 19-1620): as the sequence (Q9UM73 19-1620 G1202R) above, with R1184G counted along it
Sequence of ROS1 (G2032R) (P08922 28-2347 G2032R): as the sequence (P08922 28-2347) above, with G2005R counted along it

Structure (SMILES): C[C@@H](Nc1ccn2ncc(C3=NC(=O)C(C)(C)N3)c2n1)c1cc(F)ccc1OC(F)F [Example 6]
- IC50 [1]: < 0.5 nM
- IC50 [2]: < 0.5 nM
- IC50 [3]: < 0.5 nM
- IC50 [4]: < 0.5 nM
- IC50 [5]: 0.5 to 5 nM
- IC50 [6]: 5 to 50 nM
- IC50 [7]: 24.1 nM
- IC50 [8]: 13.4 nM
- IC50 [9]: 110 nM
